Results taken from patent publication US7875270B2, “Treatment solution and method for preventing posterior capsular opacification by selectively inducing detachment and/or death of lens epithelial cells” (Abbott Medical Optics Inc., priority 2002, dated 2011).

Experiments:
[1] = tested on: human lens epithelial cells (LECs); assay: Confluent LEC monolayers exposed to solutions; MTT cell viability and microscopy; type: cell-based; details: 28 μM, 112 μM and 224 μM bumetanide, ≦200 mM NaCl, 3 μl of 5N NaOH
[2] = tested on: human LECs-CCCs freshly removed from cataract operation; assay: In situ treatment of LECs attached to capsulorhexis lens capsule (LECs-CCC); type: cell-based
Description: The in situ effects of a treatment solution comprising dihydrochlorothiazide (DHCT) (a cotransport interference agent from the group of the thiazide and related diuretics) and hyperosmotic NaCl on human LECs is examined. The treatment is tested on LECs that are still attached to a continuous curvilinear capsulorhexis lens capsule (LECs-CCC) which are freshly removed from a human cataract operation.
The LECs-CCCs are obtained from a cataract operation and immediately put in freshly prepared Eagle's Minimum Essential Medium (MEM) supplemented with 2 mM glutamine, 25 mmol/L Hepes (pH 7.4) without foetal cow serum (FCS) and is transferred to the laboratory for evaluation. Viable LECs are identified by staining the LECs-CCCs for five minutes with 0.2% Trypan Blue. The sheets containing more than 70% viable LECs are used to assess the efficacy of the treatment. […]
In the first step, a hyperosmotic solution of NaCl is prepared by making a stock solution of 2 M NaCl by adding 58.44 g NaCl (supplied by Sigma Chemical Co., U.S.) to 500 ml dH2O. The desired concentration of osmotic NaCl is prepared by diluting the 2M stock solution with dH2O. For example, to make a hyperosmotic solution of 170 mM NaCl, the 2M NaCl stock solution was diluted with dH2O at a ratio of […]. To make a hyperosmotic solution of 200 mM NaCl, the 2M NaCl stock solution is diluted with dH2O at a ratio of 1 to 9. Final osmolarities (mOsm/kg/H2O) are determined by a freezing point depression method using cryoscopic osmometry.
In the second step, DHCT stock solution is made by adding 25 mg DHCT to 1 ml dH2O. […]
The treatment is applied by exposing the LECs-CCCs for five minutes in a small petri dish containing the treatment solution. The treatment solution is removed after five minutes exposure by a syringe and then the fresh PBS is added in the petri dish to wash away the treatment solution. The LECs-CCCs are washed three times. The changes of the LECS are monitored under a microscope. Microscope photographs are taken at 0, 2 and 5 minutes and after wash.

CCCCNc1cc(C(=O)O)cc(S(N)(=O)=O)c1Oc1ccccc1 [bumetanide]
LECs showing MTT negative response [1]: ~100%
LEC response under phase-contrast microscopic observation ([1]; about ten minutes): nearly all of the LECs shrink, detach and/or die
LEC changes after exposure ([2]; 308 μm bumetanide and hyperosmotic 170 or 200 mM NaCl): do not detach, but arrest and die while shrunken
LEC death by trypan blue exclusion ([2]; 308 μm bumetanide and hyperosmotic NaCl, after washing): cells died after treatment
